Assays:
Test in all cases: biochemical
Type in all cases: biochemical
[1] = biological target: T1, 363 human kinases (including Aurora A/B/C) (Homo sapiens, UniProt Q12866); conditions: c-MER, [ATP] 30 µM; for remaining activity at 0.1 µM: 100 nM; for remaining activity at 0.1 µM / remaining activity at 0.5 µM: read-out: % Enzyme Activity (relative to DMSO controls)
T1 sequence (Q12866 21-999): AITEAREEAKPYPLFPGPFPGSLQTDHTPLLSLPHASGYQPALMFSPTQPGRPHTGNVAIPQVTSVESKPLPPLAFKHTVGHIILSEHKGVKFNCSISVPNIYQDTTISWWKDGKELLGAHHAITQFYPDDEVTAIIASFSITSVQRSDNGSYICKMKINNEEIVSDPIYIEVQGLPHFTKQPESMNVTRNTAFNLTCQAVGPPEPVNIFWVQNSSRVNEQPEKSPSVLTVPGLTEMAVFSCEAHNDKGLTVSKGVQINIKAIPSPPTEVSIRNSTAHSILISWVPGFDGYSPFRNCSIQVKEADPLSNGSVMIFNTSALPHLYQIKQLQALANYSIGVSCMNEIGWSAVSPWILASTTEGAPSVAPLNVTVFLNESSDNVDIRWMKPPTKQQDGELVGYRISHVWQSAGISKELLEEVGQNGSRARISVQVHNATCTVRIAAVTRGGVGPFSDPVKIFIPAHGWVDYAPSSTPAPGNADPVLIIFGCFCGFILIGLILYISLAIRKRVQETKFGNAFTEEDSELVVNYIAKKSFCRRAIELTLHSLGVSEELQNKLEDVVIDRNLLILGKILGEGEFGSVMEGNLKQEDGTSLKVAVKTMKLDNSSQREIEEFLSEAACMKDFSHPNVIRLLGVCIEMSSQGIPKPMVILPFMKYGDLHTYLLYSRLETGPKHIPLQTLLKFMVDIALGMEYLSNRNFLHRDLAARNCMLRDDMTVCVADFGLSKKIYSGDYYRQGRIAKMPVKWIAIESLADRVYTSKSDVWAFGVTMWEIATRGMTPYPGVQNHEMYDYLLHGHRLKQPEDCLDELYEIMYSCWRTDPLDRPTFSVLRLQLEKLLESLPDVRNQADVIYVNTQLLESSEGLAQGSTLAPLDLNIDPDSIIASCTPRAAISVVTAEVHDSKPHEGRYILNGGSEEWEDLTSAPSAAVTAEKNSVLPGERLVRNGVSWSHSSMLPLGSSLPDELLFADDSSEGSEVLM
Text: (§1) However, the Aurora A/B selectivity ratios derived from our in vitro and in vivo data can be compared to prioritize inhibitors.

[2] = biological target: 363 human kinases (including Aurora A/B/C) (Homo sapiens, UniProt P34947); conditions: GRK5; for remaining activity at 0.1 µM: 100 nM; for remaining activity at 0.1 µM / remaining activity at 0.5 µM: read-out: % Enzyme Activity (relative to DMSO controls)
Text: as §1

[3] = biological target: T2, 363 human kinases (including Aurora A/B/C) (Homo sapiens, UniProt Q96BR1); conditions: SGK3/SGKL; for remaining activity at 0.1 µM: 100 nM; for remaining activity at 0.1 µM / remaining activity at 0.5 µM: read-out: % Enzyme Activity (relative to DMSO controls)
T2 sequence (Q96BR1 1-496): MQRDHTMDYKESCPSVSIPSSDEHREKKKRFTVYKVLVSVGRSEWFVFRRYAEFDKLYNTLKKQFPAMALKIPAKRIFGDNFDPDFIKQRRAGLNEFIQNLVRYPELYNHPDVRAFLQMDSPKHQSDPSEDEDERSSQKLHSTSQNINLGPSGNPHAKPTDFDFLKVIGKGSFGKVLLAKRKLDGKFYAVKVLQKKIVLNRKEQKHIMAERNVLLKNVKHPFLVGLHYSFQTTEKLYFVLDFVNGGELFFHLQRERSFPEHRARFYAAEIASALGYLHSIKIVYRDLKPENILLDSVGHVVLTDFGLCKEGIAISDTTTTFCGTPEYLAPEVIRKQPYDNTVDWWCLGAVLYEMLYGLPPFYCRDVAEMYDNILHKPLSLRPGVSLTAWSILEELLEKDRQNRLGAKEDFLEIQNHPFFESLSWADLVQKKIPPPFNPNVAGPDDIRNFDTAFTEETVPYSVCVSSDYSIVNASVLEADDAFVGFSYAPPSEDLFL
Text: as §1

[4] = biological target: T3, 363 human kinases (including Aurora A/B/C) (Homo sapiens, UniProt Q8WTQ7); conditions: GRK7; for remaining activity at 0.1 µM: 100 nM; for remaining activity at 0.1 µM / remaining activity at 0.5 µM: read-out: % Enzyme Activity (relative to DMSO controls)
T3 sequence (Q8WTQ7 1-553): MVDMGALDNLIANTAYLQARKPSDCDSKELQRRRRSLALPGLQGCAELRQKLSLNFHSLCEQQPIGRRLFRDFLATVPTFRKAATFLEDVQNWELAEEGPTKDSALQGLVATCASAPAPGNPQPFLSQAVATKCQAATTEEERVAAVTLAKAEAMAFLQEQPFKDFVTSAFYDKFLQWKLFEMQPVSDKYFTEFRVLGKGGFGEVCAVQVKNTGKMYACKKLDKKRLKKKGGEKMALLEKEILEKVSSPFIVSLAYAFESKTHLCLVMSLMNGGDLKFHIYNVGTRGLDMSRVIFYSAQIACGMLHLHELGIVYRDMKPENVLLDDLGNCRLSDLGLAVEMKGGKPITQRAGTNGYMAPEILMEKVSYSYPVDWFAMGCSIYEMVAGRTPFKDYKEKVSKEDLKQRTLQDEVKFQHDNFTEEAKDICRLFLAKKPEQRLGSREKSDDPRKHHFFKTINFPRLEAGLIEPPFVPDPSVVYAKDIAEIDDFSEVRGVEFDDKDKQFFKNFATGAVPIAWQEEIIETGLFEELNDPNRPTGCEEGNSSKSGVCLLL
Text: as §1

[5] = biological target: 363 human kinases (including Aurora A/B/C) (Homo sapiens, UniProt Q13554); conditions: CAMK2b, [ATP] 100 µM; for remaining activity at 0.1 µM: 100 nM; for remaining activity at 0.1 µM / remaining activity at 0.5 µM: read-out: % Enzyme Activity (relative to DMSO controls)
Text: as §1

[6] = biological target: 363 human kinases (including Aurora A/B/C) (Homo sapiens, UniProt Q86V86); conditions: PIM3; for remaining activity at 0.1 µM: 100 nM; for remaining activity at 0.1 µM / remaining activity at 0.5 µM: read-out: % Enzyme Activity (relative to DMSO controls)
Text: as §1

[7] = biological target: 363 human kinases (including Aurora A/B/C) (Homo sapiens, UniProt Q96NX5); conditions: CAMK1g, [ATP] 30 µM; for remaining activity at 0.1 µM: 100 nM; for remaining activity at 0.1 µM / remaining activity at 0.5 µM: read-out: % Enzyme Activity (relative to DMSO controls)
Text: as §1

[8] = biological target: 363 human kinases (including Aurora A/B/C) (Homo sapiens, UniProt P78362); conditions: SRPK2; for remaining activity at 0.1 µM: 100 nM; for remaining activity at 0.1 µM / remaining activity at 0.5 µM: read-out: % Enzyme Activity (relative to DMSO controls)
Text: as §1

[9] = biological target: 363 human kinases (including Aurora A/B/C) (Homo sapiens, UniProt Q13233); conditions: MEKK1; for remaining activity at 0.1 µM: 100 nM; for remaining activity at 0.1 µM / remaining activity at 0.5 µM: read-out: % Enzyme Activity (relative to DMSO controls)
Text: as §1

[10] = biological target: 363 human kinases (including Aurora A/B/C) (Homo sapiens, UniProt Q96RG2); conditions: PASK; for remaining activity at 0.1 µM: 100 nM; for remaining activity at 0.1 µM / remaining activity at 0.5 µM: read-out: % Enzyme Activity (relative to DMSO controls)
Text: as §1

[11] = biological target: 363 human kinases (including Aurora A/B/C) (Homo sapiens, UniProt O14578); conditions: STK21/CIT; for remaining activity at 0.1 µM: 100 nM; for remaining activity at 0.1 µM / remaining activity at 0.5 µM: read-out: % Enzyme Activity (relative to DMSO controls)
Sequence of 363 human kinases (including Aurora A/B/C) (Homo sapiens, UniProt O14578) (O14578 whole entry): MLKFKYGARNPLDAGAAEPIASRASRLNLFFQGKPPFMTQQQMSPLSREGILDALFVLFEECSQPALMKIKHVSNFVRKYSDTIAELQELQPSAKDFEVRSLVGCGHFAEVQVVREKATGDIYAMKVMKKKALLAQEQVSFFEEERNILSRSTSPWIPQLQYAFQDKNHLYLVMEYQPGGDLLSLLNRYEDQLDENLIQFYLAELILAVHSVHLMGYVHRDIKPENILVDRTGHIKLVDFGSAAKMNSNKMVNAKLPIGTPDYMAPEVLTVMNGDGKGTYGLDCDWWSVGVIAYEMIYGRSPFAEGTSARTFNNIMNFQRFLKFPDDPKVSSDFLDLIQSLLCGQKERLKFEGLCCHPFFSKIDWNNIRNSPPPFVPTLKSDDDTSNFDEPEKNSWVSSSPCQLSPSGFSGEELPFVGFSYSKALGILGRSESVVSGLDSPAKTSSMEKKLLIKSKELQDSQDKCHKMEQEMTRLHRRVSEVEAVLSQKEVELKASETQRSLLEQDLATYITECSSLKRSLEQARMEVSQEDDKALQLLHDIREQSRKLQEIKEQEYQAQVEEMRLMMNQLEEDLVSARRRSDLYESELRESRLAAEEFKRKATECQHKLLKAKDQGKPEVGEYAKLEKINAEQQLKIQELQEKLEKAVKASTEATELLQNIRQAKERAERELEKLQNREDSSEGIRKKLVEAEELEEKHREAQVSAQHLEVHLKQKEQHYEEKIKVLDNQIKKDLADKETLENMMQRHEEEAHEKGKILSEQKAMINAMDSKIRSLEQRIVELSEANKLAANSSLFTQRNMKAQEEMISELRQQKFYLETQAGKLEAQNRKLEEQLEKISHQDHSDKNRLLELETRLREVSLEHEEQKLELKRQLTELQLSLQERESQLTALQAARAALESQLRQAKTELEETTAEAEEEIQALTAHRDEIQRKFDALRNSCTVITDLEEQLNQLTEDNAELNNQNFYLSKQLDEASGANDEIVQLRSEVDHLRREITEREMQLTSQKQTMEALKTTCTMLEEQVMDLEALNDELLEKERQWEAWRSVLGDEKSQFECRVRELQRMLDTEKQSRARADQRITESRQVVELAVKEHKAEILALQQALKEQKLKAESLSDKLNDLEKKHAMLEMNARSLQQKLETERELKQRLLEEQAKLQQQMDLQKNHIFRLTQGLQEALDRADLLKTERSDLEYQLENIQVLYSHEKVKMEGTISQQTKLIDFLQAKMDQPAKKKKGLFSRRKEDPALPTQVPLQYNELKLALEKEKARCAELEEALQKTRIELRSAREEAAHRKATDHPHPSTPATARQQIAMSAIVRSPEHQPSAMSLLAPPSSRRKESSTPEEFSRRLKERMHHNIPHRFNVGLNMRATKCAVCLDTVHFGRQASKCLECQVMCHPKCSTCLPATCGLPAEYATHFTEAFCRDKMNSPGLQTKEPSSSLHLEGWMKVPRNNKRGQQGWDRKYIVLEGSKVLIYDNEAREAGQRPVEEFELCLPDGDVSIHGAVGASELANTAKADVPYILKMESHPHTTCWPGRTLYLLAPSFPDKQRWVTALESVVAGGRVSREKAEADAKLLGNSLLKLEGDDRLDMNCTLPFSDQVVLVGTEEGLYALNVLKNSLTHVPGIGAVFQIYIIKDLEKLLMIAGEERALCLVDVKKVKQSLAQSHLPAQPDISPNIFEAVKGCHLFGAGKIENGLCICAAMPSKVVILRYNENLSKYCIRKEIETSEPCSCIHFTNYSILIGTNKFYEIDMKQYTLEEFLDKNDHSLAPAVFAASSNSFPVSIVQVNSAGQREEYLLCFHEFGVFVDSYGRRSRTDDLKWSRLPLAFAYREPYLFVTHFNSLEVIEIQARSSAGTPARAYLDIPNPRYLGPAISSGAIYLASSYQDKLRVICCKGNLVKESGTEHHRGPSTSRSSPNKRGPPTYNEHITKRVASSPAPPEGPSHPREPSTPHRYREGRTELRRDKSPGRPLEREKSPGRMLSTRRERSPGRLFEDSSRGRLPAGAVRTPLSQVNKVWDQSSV
Text: as §1

Sequence of 363 human kinases (including Aurora A/B/C) (Homo sapiens, UniProt Q13233) (Q13233 whole entry): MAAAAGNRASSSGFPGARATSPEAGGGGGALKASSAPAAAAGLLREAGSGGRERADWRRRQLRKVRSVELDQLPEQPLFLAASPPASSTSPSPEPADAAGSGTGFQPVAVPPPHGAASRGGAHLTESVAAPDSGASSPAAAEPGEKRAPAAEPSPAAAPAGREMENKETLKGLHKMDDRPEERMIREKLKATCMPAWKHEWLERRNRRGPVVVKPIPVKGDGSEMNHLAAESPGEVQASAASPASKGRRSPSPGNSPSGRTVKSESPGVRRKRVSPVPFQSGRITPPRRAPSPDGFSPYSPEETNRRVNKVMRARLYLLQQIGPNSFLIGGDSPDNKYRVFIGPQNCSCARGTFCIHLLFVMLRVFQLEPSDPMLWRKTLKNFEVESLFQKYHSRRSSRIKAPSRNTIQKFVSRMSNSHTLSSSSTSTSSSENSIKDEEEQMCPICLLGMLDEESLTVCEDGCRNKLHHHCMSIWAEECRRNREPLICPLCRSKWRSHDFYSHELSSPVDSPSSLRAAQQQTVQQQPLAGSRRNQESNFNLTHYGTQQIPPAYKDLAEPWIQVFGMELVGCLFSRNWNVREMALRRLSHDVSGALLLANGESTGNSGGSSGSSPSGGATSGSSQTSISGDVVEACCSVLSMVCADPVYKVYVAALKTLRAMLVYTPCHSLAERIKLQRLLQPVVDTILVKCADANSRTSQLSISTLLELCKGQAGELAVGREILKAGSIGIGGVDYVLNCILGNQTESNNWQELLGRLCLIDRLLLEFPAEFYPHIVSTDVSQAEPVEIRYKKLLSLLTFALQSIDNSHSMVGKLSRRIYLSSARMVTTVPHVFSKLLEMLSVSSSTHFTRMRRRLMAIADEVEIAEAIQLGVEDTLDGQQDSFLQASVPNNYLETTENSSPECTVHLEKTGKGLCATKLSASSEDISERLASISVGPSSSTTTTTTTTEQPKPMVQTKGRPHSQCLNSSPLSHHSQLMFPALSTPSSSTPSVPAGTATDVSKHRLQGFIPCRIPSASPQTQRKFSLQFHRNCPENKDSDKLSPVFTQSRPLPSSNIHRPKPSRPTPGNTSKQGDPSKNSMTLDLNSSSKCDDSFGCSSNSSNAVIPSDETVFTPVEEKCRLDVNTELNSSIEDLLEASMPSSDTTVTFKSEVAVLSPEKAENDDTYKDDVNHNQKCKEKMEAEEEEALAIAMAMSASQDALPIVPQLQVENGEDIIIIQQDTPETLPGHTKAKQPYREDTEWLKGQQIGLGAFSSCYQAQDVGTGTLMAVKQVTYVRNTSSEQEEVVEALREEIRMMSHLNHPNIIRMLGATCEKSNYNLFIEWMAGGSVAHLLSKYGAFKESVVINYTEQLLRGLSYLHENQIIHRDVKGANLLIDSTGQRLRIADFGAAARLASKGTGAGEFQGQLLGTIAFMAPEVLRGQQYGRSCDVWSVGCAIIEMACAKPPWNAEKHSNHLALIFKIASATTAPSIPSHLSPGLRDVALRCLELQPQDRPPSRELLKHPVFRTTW
Sequence of 363 human kinases (including Aurora A/B/C) (Homo sapiens, UniProt P78362) (P78362 whole entry): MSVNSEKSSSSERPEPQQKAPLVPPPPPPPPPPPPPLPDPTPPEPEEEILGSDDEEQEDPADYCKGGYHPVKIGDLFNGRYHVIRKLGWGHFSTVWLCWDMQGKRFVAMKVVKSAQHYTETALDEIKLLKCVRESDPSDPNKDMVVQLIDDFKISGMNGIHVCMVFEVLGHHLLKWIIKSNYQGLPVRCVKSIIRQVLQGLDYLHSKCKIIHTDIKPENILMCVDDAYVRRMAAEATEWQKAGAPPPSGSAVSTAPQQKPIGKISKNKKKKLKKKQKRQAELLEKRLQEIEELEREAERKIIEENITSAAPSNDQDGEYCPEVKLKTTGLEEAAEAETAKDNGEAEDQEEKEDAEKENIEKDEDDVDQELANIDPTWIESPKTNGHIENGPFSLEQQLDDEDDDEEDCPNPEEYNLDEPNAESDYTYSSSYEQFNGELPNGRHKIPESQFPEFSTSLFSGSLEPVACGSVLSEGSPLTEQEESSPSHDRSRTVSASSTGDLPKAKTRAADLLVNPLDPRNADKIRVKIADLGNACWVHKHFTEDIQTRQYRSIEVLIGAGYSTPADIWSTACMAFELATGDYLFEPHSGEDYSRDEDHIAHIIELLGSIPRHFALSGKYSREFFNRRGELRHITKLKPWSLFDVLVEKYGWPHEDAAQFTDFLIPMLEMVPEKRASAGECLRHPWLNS
Sequence of 363 human kinases (including Aurora A/B/C) (Homo sapiens, UniProt Q96NX5) (Q96NX5 whole entry): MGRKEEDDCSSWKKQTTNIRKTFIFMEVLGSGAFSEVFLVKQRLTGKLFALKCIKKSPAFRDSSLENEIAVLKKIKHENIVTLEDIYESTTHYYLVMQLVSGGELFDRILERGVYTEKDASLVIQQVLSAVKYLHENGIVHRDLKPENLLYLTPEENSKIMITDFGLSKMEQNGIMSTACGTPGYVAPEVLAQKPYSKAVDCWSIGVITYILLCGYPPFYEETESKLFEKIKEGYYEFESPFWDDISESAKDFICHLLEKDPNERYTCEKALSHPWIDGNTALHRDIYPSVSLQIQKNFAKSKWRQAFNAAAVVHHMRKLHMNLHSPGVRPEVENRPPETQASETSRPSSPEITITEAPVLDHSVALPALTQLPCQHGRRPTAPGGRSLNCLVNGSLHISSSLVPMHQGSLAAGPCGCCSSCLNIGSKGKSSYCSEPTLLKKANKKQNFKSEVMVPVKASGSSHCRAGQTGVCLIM

Structure (SMILES)	remaining activity at 0.1 µM [1] [%]	remaining activity at 0.1 µM [2] [%]	remaining activity at 0.1 µM [3] [%]	remaining activity at 0.1 µM [4] [%]	remaining activity at 0.1 µM [5] [%]	remaining activity at 0.1 µM [6] [%]	remaining activity at 0.1 µM [7] [%]	remaining activity at 0.1 µM [8] [%]	remaining activity at 0.1 µM [9] [%]	remaining activity at 0.1 µM [10] [%]	remaining activity at 0.1 µM [11] [%]	remaining activity at 0.5 µM ([1]; 500 nM) [%]	remaining activity at 0.5 µM ([2]; 500 nM) [%]	remaining activity at 0.5 µM ([3]; 500 nM) [%]	remaining activity at 0.5 µM ([4]; 500 nM) [%]	remaining activity at 0.5 µM ([5]; 500 nM) [%]	remaining activity at 0.5 µM ([6]; 500 nM) [%]	remaining activity at 0.5 µM ([7]; 500 nM) [%]	remaining activity at 0.5 µM ([8]; 500 nM) [%]	remaining activity at 0.5 µM ([9]; 500 nM) [%]	other results
CCn1cc(-c2ccnc3[nH]c(-c4cccc(CN(C)C)c4)cc23)c(-c2ccc(NC(=O)N(C)C)cc2)n1 [GSK1070916]	81.6	96.3	105	100	101	106	96.3	96.5	91.8	102	100										
O=C(O)[C@]1(Cc2cccc(Nc3nccs3)n2)CC[C@@H](Oc2cccc(Cl)c2F)CC1 [MK-5108]	78.7	102	106	98.7	95.5	93.8	100	95.4	104	100	115	46.1	90.9	105	94.2	97.8	62.2	93.7	94.3	87	remaining activity at 0.5 µM ([10]; 500 nM): 104%; remaining activity at 0.5 µM ([11]; 500 nM): 102%
O=C(c1cccc(Cl)c1F)N1CCN(Cc2cccc(Nc3nccs3)n2)CC1 [MK-8745]												41.6	95.8	99.7	101	101	96	91.9	99.7	101	% Enzyme Activity (relative to DMSO controls) ([1]; 500 nM): 41.19%; % Enzyme Activity (relative to DMSO controls) ([2]; 500 nM): 94.27%; % Enzyme Activity (relative to DMSO controls) ([3]; 500 nM): 98.27%; % Enzyme Activity (relative to DMSO controls) ([4]; 500 nM): 97.48%; % Enzyme Activity (relative to DMSO controls) ([5]; 500 nM): 99.72%; % Enzyme Activity (relative to DMSO controls) ([6]; 500 nM): 94.49%; % Enzyme Activity (relative to DMSO controls) ([7]; 500 nM): 91.44%; % Enzyme Activity (relative to DMSO controls) ([8]; 500 nM): 98.38%; % Enzyme Activity (relative to DMSO controls) ([9]; 500 nM): 100.17%; % Enzyme Activity (relative to DMSO controls) ([10]; 500 nM): 101.46%; remaining activity at 0.5 µM ([10]; 500 nM): 103%; % Enzyme Activity (relative to DMSO controls) ([11]; 500 nM): 101.37%; remaining activity at 0.5 µM ([11]; 500 nM): 104%
